Measured values taken from ChEMBL document CHEMBL1201862, “PubChem BioAssay data set” (2004).
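The compound was tested at five concentrations on cells cultured in 96-well plates, with a 48-hour exposure period. GI50: concentration for 50% inhibition of growth.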 Calls of active or inactive are those of the source. Cut-off read from the data, not from the text of the source: active = GI50 up to about 1.1 µM and inactive = higher.

Columns and labels:
Assay in all cases: growth of human tumour cells (NCI), 48 h
A498 = system: A498
ACHN = system: ACHN
CAKI-1 = system: CAKI-1
CCRF-CEM = system: CCRF-CEM
COLO 205 = system: COLO 205
HCT-15 = system: HCT-15
K562 = system: K562
KM12 = system: KM12
MDA-MB-231 = system: MDA-MB-231
MOLT-4 = system: MOLT-4
NCI-H522 = system: NCI-H522
OVCAR-4 = system: OVCAR-4
OVCAR-8 = system: OVCAR-8
SF-268 = system: SF-268
SF-295 = system: SF-295
SK-MEL-28 = system: SK-MEL-28
SNB-19 = system: SNB-19
T47D = system: T47D
UACC-257 = system: UACC-257
UACC-62 = system: UACC-62

Row | Structure (SMILES) | GI50 (A498) | GI50 (ACHN) | GI50 (CAKI-1) | GI50 (CCRF-CEM) | GI50 (COLO 205) | GI50 (HCT-15) | GI50 (K562) | GI50 (KM12) | GI50 (MDA-MB-231) | GI50 (MOLT-4) | GI50 (NCI-H522) | GI50 (OVCAR-4) | GI50 (OVCAR-8) | GI50 (SF-268) | GI50 (SF-295) | GI50 (SK-MEL-28) | GI50 (SNB-19) | GI50 (T47D) | GI50 (UACC-257) | GI50 (UACC-62)
1 | COc1cc2c3cc1Oc1c(OC)c(OC)cc4c1C(Cc1ccc(O)c(c1)Oc1ccc(cc1)CC3N(C)CC2)N(C)CC4 (configuration not stated) | 23.7 µM (inactive) | 17.3 µM (inactive) | 17.9 µM (inactive) | 17.2 µM (inactive) | 32 µM (inactive) | 16.1 µM | 7.78 µM (inactive) | 28.1 µM (inactive) | 35.6 µM (inactive) | 44.4 µM (inactive) | 31.5 µM (inactive) | 29 µM (inactive) | 33.6 µM (inactive) | 24.3 µM (inactive) | 21.5 µM (inactive) | 64.4 µM (inactive) | 20.2 µM (inactive) | 27.8 µM (inactive) | 34.1 µM (inactive) | 44.6 µM (inactive)
2 | O=[As](O)(O)c1ccc(NCc2ccccc2)cc1 | > 100 µM (inactive) | > 100 µM (inactive) | > 100 µM (inactive) |  | > 100 µM (inactive) | > 100 µM | > 100 µM (inactive) | > 100 µM (inactive) | > 100 µM (inactive) | > 100 µM (inactive) | 76.9 µM (inactive) | > 100 µM (inactive) | > 100 µM (inactive) | > 100 µM (inactive) | > 100 µM (inactive) | > 100 µM (inactive) | > 100 µM (inactive) | > 100 µM (inactive) | > 100 µM (inactive) | > 100 µM (inactive)
3 | Cc1cc(C)c2c(c1)C/C(=C\c1ccccc1C(=O)O)C2=O | 51.5 µM (inactive) | > 100 µM (inactive) | > 100 µM (inactive) | 34.6 µM (inactive) |  | 47.4 µM | > 100 µM (inactive) | > 100 µM (inactive) | > 100 µM (inactive) | 76.4 µM (inactive) | 66.2 µM (inactive) | > 100 µM (inactive) | 57 µM (inactive) | > 100 µM (inactive) | > 100 µM (inactive) | > 100 µM (inactive) | > 100 µM (inactive) | 35.2 µM (inactive) | > 100 µM (inactive) | 
4 | CC1(C)CC(=O)C2=C(C1)OC1=C(CC(C)(C)CC1=O)C2c1ccccc1Cl (configuration not stated) | > 100 µM (inactive) | > 100 µM (inactive) | > 100 µM (inactive) | > 100 µM (inactive) | > 100 µM (inactive) | > 100 µM | > 100 µM (inactive) |  | 89.7 µM (inactive) | > 100 µM (inactive) | > 100 µM (inactive) | > 100 µM (inactive) | > 100 µM (inactive) | > 100 µM (inactive) | > 100 µM (inactive) | > 100 µM (inactive) | > 100 µM (inactive) | > 100 µM (inactive) | > 100 µM (inactive) | > 100 µM (inactive)
5 | Cn1c(=O)c2sc3cc4c(cc3c2c2ccccc21)sc1c(=O)n(C)c2ccccc2c14 | > 100 µM (inactive) | 19.2 µM (inactive) | > 100 µM (inactive) | 40.1 µM (inactive) | > 100 µM (inactive) | > 100 µM | > 10 µM (inactive) | > 100 µM (inactive) | 16.6 µM (inactive) | 78.2 µM (inactive) | 34.2 µM (inactive) | > 100 µM (inactive) | 41.7 µM (inactive) | 59.7 µM (inactive) | 15.2 µM (inactive) | > 100 µM (inactive) |  | > 100 µM (inactive) | > 100 µM (inactive) | > 100 µM (inactive)
6 | C1=N\c2ccc(cc2)/N=C\c2ccc(cc2)OCc2cccc(n2)COc2ccc/1cc2 | > 100 µM (inactive) | > 100 µM (inactive) | > 100 µM (inactive) | > 100 µM (inactive) | > 100 µM (inactive) | > 100 µM | > 100 µM (inactive) | > 100 µM (inactive) | > 100 µM (inactive) | > 100 µM (inactive) | > 100 µM (inactive) | > 100 µM (inactive) | > 100 µM (inactive) | > 100 µM (inactive) | > 100 µM (inactive) | > 100 µM (inactive) | > 100 µM (inactive) | > 100 µM (inactive) | > 100 µM (inactive) | > 100 µM (inactive)
7 | CC(C)(C)c1cc(COc2cc(COc3ccc(-c4c5c(nc6c4CCc4ccc(-c7c8ccccc8nc8ccccc78)cc4-6)-c4cc(-c6c7ccccc7nc7ccccc67)ccc4CC5)cc3)cc(OCc3cc(C(C)(C)C)cc(C(C)(C)C)c3)c2)cc(C(C)(C)C)c1 | > 100 µM (inactive) | > 100 µM (inactive) | > 100 µM (inactive) |  | > 100 µM (inactive) | > 100 µM | > 100 µM (inactive) | > 100 µM (inactive) | > 100 µM (inactive) |  | > 100 µM (inactive) | > 100 µM (inactive) |  | > 100 µM (inactive) | > 100 µM (inactive) | > 100 µM (inactive) | > 100 µM (inactive) | > 100 µM (inactive) | > 100 µM (inactive) | > 100 µM (inactive)
8 | C[C@H]1OC(=O)[C@@H]2N=NN(Cc3ccccc3)[C@H]12 | > 100 µM (inactive) | > 100 µM (inactive) | > 100 µM (inactive) |  | > 100 µM (inactive) | > 100 µM | > 100 µM (inactive) | > 100 µM (inactive) | > 100 µM (inactive) | > 100 µM (inactive) | > 100 µM (inactive) | > 100 µM (inactive) | > 100 µM (inactive) | > 100 µM (inactive) | > 100 µM (inactive) | > 100 µM (inactive) | > 100 µM (inactive) | > 100 µM (inactive) |  | > 100 µM (inactive)
9 | C/C=C/[C@H]1O[C@@](O)([C@@H](C)[C@H](O)[C@H](C)[C@H]2OC(=O)/C(OC)=C/C(C)=C/[C@@H](C)[C@@H](O)[C@@H](CC)[C@@H](O)[C@H](C)C/C(C)=C/C=C/[C@@H]2OC)C[C@H](OC2CC(O)C(OC(N)=O)C(C)O2)[C@@H]1C (some centres not stated) | 18.8 µM (inactive) | 0.0286 µM (active) | 0.0532 µM (active) | < 0.01 µM (active) | 0.0334 µM (active) | 0.0426 µM | 0.024 µM (active) | < 0.0163 µM (active) | 0.678 µM (active) | < 0.01 µM (active) | 0.0399 µM (active) | 0.0791 µM (active) | 0.0474 µM (active) | 0.0447 µM (active) | 0.0248 µM (active) | 0.74 µM (active) | 8.22 µM (inactive) | 0.0333 µM (active) | 0.0641 µM (active) | 0.0231 µM (active)
10 | O=C(O)c1c2c(cc3c1CC1(Cc4ccccc4C1)C3)CCC2 | > 100 µM (inactive) | 32.7 µM (inactive) | 53.2 µM (inactive) | 23.3 µM (inactive) | 57.7 µM (inactive) | 82.4 µM | 59.3 µM (inactive) | 59.3 µM (inactive) | 95.7 µM (inactive) | 82.8 µM (inactive) | 49.1 µM (inactive) | 58.2 µM (inactive) | 63.1 µM (inactive) | > 100 µM (inactive) | > 100 µM (inactive) | > 100 µM (inactive) |  | 77.1 µM (inactive) | > 100 µM (inactive) | > 100 µM (inactive)
11 | NNc1nc2ccccc2c(=O)n1NC(=O)C(=O)Nc1cccc(C(F)(F)F)c1 | > 100 µM (inactive) | > 100 µM (inactive) | > 100 µM (inactive) | > 100 µM (inactive) |  | > 100 µM | > 100 µM (inactive) | > 100 µM (inactive) | > 100 µM (inactive) | > 100 µM (inactive) | > 100 µM (inactive) | > 100 µM (inactive) | > 100 µM (inactive) | > 100 µM (inactive) | > 100 µM (inactive) | > 100 µM (inactive) | > 100 µM (inactive) | > 100 µM (inactive) | > 100 µM (inactive) | > 100 µM (inactive)
12 | O=C(Cc1nc2ccc(C(=O)c3ccccc3)cc2nc1O)C(=O)Nc1ccc(Br)cc1 | > 100 µM (inactive) | 71.8 µM (inactive) | 40.1 µM (inactive) |  |  | 54.3 µM | 49.2 µM (inactive) | 34.8 µM (inactive) | > 100 µM (inactive) |  | 48.9 µM (inactive) | 44.4 µM (inactive) | 96.2 µM (inactive) | > 100 µM (inactive) | > 100 µM (inactive) | > 100 µM (inactive) |  | > 100 µM (inactive) | > 100 µM (inactive) | > 100 µM (inactive)
13 | Clc1ccc2c(NCCNC3CCCCC3)ccnc2c1 | 2.11 µM (inactive) | 12.5 µM (inactive) | 5.41 µM (inactive) | 2.81 µM (inactive) | 1.36 µM (inactive) | 5.4 µM | 2.12 µM (inactive) | 6.28 µM (inactive) | 9.62 µM (inactive) | 3.48 µM (inactive) | 2.67 µM (inactive) | 11.6 µM (inactive) | 10.7 µM (inactive) | 9.64 µM (inactive) | 3.34 µM (inactive) | 1.86 µM (inactive) | 15.9 µM (inactive) | 4.2 µM (inactive) |  | 4.28 µM (inactive)
14 | COc1cc(-c2oc3c(OC)c(O)c(OC)c(O)c3c(=O)c2OC)ccc1O | 37.3 µM (inactive) | 41.9 µM (inactive) | 24.8 µM (inactive) | 35.2 µM (inactive) | > 100 µM (inactive) | 28.8 µM | 58.6 µM (inactive) | > 100 µM (inactive) | 44.2 µM (inactive) | 95.5 µM (inactive) | 29.1 µM (inactive) | 74.1 µM (inactive) | 68.5 µM (inactive) |  | 44.9 µM (inactive) | 56.8 µM (inactive) | > 100 µM (inactive) | 20.3 µM (inactive) | 60.5 µM (inactive) | 20.7 µM (inactive)
